In patent US8642770B2, “Indole derivative” (Takeda Pharmaceutical Company Limited, priority 2010, dated 2014):
Counter-ions that a name gives are not always drawn.

| melting point [°C] | SMILES |
| --- | --- |
| 278 | Cc1c(NC(=O)c2ccc(OC[C@@H]3CCCO3)cc2)ccc2c1cc(CN[C@H]1CC[C@](C)(O)CC1)n2C.Cl |
| 150 to 151 | Cn1c(CNCC(C)(C)C)cc2cc(NC(=O)c3ccc(OC[C@@H]4CCCO4)cc3)ccc21 (as salt: acetate) [Example 15, N-(2-{[(2,2-dimethylpropyl)amino]methyl}-1-methyl-1H-indol-5-yl)-4-[(2S)-tetrahydrofuran-2-ylmethoxy]benzamide acetate] |
| 166 to 167 | CC1(CNCc2cc3cc(NC(=O)c4ccc(OCC5CC5)cc4)ccc3[nH]2)COC1 [Example 1, 4-(cyclopropylmethoxy)-N-[2-({[(3-methyloxetan-3-yl)methyl]amino}methyl)-1H-indol-5-yl]benzamide] |
| 160 | O=C(Nc1ccc2[nH]c(CNCC3CCOCC3)cc2c1)c1ccc(OCC2CC2)cc1 [Example 3, 4-(cyclopropylmethoxy)-N-(2-{[(tetrahydro-2H-pyran-4-ylmethyl)amino]methyl}-1H-indol-5-yl)benzamide] |
| 154 to 155 | Cn1c(CNCC2(C)COC2)cc2cc(NC(=O)c3ccc(OCC4CC4)cc3)ccc21 [Example 4, 4-(cyclopropylmethoxy)-N-[1-methyl-2-({[(3-methyloxetan-3-yl)methyl]amino}methyl)-1H-indol-5-yl]benzamide] |
| 188 to 189 | Cn1c(CNCC(C)(C)O)cc2cc(NC(=O)c3ccc(OCC4CC4)cc3)ccc21 [Example 5, 4-(cyclopropylmethoxy)-N-(2-{[(2-hydroxy-2-methylpropyl)amino]methyl}-1-methyl-1H-indol-5-yl)benzamide] |
| 168 to 169 | Cn1c(CNCC(C)(C)S(C)(=O)=O)cc2cc(NC(=O)c3ccc(OCC4CC4)cc3)ccc21 [Example 7, 4-(cyclopropylmethoxy)-N-[1-methyl-2-({[2-methyl-2-(methylsulfonyl)propyl]amino}methyl)-1H-indol-5-yl]benzamide] |
| 196 to 197 | Cn1c(CN[C@H]2CC[C@H](O)CC2)cc2cc(NC(=O)c3ccc(OCC4CC4)cc3)ccc21 [Example 8, 4-(cyclopropylmethoxy)-N-(2-{[(trans-4-hydroxycyclohexyl)amino]methyl}-1-methyl-1H-indol-5-yl)benzamide] |
| 138 to 139 | Cn1c(CNC[C@H]2CCCO2)cc2cc(NC(=O)c3ccc(OCC4CC4)cc3)ccc21 [Example 10, 4-(cyclopropylmethoxy)-N-[1-methyl-2-({[(2R)-tetrahydrofuran-2-ylmethyl]amino}methyl)-1H-indol-5-yl]benzamide] |
| 139 | Cn1c(CNC[C@@H]2CCCO2)cc2cc(NC(=O)c3ccc(OCC4CC4)cc3)ccc21 [Example 11, 4-(cyclopropylmethoxy)-N-[1-methyl-2-({[(2S)-tetrahydrofuran-2-ylmethyl]amino}methyl)-1H-indol-5-yl]benzamide] |
| 132 to 133 | CC(C)CNCc1cc2cc(NC(=O)c3ccc(OC[C@@H]4CCCO4)cc3)ccc2n1C [Example 16, N-(1-methyl-2-{[(2-methylpropyl)amino]methyl}-1H-indol-5-yl)-4-[(2S)-tetrahydrofuran-2-ylmethoxy]benzamide] |
| 154 | Cn1c(CNC2CCC(C)(O)CC2)cc2cc(NC(=O)c3ccc(OC[C@@H]4CCCO4)cc3)ccc21 (stereo partly drawn) [Example 18, N-(2-{[(trans-4-hydroxy-4-methylcyclohexyl)amino]methyl}-1-methyl-1H-indol-5-yl)-4-[(2S)-tetrahydrofuran-2-ylmethoxy]benzamide] |
| 188 to 190 | Cn1c(CNCC(C)(C)O)cc2cc(NC(=O)c3ccc(OC[C@@H]4CCCO4)cc3)ccc21 [Example 19, N-(2-{[(2-hydroxy-2-methylpropyl)amino]methyl}-1-methyl-1H-indol-5-yl)-4-[(2S)-tetrahydrofuran-2-ylmethoxy]benzamide] |
| 125 to 126 | CC(C)CNCc1cc2cc(NC(=O)c3ccc(OCC4CCOC4)cc3)ccc2n1C (stereo not drawn) [Example 21, N-(1-methyl-2-{[(2-methylpropyl)amino]methyl}-1H-indol-5-yl)-4-(tetrahydrofuran-3-ylmethoxy)benzamide] |
| 162 to 163 | Cn1c(CNCC(C)(C)C)cc2cc(NC(=O)c3ccc(OCC4CCOC4)cc3)ccc21 (stereo not drawn) [Example 22, N-(2-{[(2,2-dimethylpropyl)amino]methyl}-1-methyl-1H-indol-5-yl)-4-(tetrahydrofuran-3-ylmethoxy)benzamide] |
| 153 to 154 | Cn1c(CNCC2CCOCC2)cc2cc(NC(=O)c3ccc(OCC4CCOC4)cc3)ccc21 (stereo not drawn) [Example 23, N-(1-methyl-2-{[(tetrahydro-2H-pyran-4-ylmethyl)amino]methyl}-1H-indol-5-yl)-4-(tetrahydrofuran-3-ylmethoxy)benzamide] |
| 181 to 182 | Cn1c(CN[C@H]2CC[C@](C)(O)CC2)cc2cc(NC(=O)c3ccc(OCC4CCOC4)cc3)ccc21 (stereo partly drawn) [Example 24, N-(2-{[(trans-4-hydroxy-4-methylcyclohexyl)amino]methyl}-1-methyl-1H-indol-5-yl)-4-(tetrahydrofuran-3-ylmethoxy)benzamide] |

| melting point [°C] | SMILES |
| --- | --- |
| 169 | Cn1c(CNCC(C)(C)O)cc2cc(NC(=O)c3ccc(OCC4CCOC4)cc3)ccc21 (stereo not drawn) [Example 25, N-(2-{[(2-hydroxy-2-methylpropyl)amino]methyl}-1-methyl-1H-indol-5-yl)-4-(tetrahydrofuran-3-ylmethoxy)benzamide] |
| 131 to 133 | Cn1c(CNCC2CCOC2)cc2cc(NC(=O)c3ccc(OCC4CCOC4)cc3)ccc21 (stereo not drawn) [Example 26, N-(1-methyl-2-{[(tetrahydrofuran-3-ylmethyl)amino]methyl}-1H-indol-5-yl)-4-(tetrahydrofuran-3-ylmethoxy)benzamide] |
| 159 to 160 | Cn1c(CNCC(C)(C)O)cc2cc(NC(=O)c3ccc(OC[C@@H]4CCCO4)cc3F)ccc21 [Example 27, 2-fluoro-N-(2-{[(2-hydroxy-2-methylpropyl)amino]methyl}-1-methyl-1H-indol-5-yl)-4-[(2S)-tetrahydrofuran-2-ylmethoxy]benzamide] |
| 138 to 139 | Cn1c(CN[C@H]2CC[C@](C)(O)CC2)cc2cc(NC(=O)c3ccc(OC[C@@H]4CCCO4)cc3F)ccc21 [Example 28, 2-fluoro-N-(2-{[(trans-4-hydroxy-4-methylcyclohexyl)amino]methyl}-1-methyl-1H-indol-5-yl)-4-[(2S)-tetrahydrofuran-2-ylmethoxy]benzamide] |
| 168 to 169 | CC(C)CNCc1cc2cc(NC(=O)c3ccc(C#CC4(O)CCC4)cc3)ccc2n1C [Example 29, 4-[(1-hydroxycyclobutyl)ethynyl]-N-(2-{[(2-methylpropyl)amino]methyl}-1-methyl-1H-indol-5-yl)benzamide] |
| 160 to 161 | Cn1c(CNCC(C)(C)C)cc2cc(NC(=O)c3ccc(C#CC4(O)CCC4)cc3)ccc21 [Example 30, N-(2-{[(2,2-dimethylpropyl)amino]methyl}-1-methyl-1H-indol-5-yl)-4-[(1-hydroxycyclobutyl)ethynyl]benzamide] |
| 173 | Cn1c(CNCC(C)(C)C)cc2cc(NC(=O)c3ccc(C#CC4(O)CC4)cc3)ccc21 [Example 31, N-(2-{[(2,2-dimethylpropyl)amino]methyl}-1-methyl-1H-indol-5-yl)-4-[(1-hydroxycyclopropyl)ethynyl]benzamide] |
| 146 to 147 | Cc1c(CNCC2CCOCC2)[nH]c2ccc(NC(=O)c3ccc(OC[C@@H]4CCCO4)cc3)cc12 [Example 33, N-(3-methyl-2-{[(tetrahydro-2H-pyran-4-ylmethyl)amino]methyl}-1H-indol-5-yl)-4-[(2S)-tetrahydrofuran-2-ylmethoxy]benzamide] |
| 145 to 146 | Cc1c(CNCC(C)C)n(C)c2ccc(NC(=O)c3ccc(OC[C@@H]4CCCO4)cc3)cc12 [Example 34, N-(2-{[(2-methylpropyl)amino]methyl}-1,3-dimethyl-1H-indol-5-yl)-4-[(2S)-tetrahydrofuran-2-ylmethoxy]benzamide] |
| 185 to 186 | Cc1c(CNCC2CCOCC2)n(C)c2ccc(NC(=O)c3ccc(OC[C@@H]4CCCO4)cc3)cc12 [Example 35, N-(1,3-dimethyl-2-{[(tetrahydro-2H-pyran-4-ylmethyl)amino]methyl}-1H-indol-5-yl)-4-[(2S)-tetrahydrofuran-2-ylmethoxy]benzamide] |
| 145 to 146 | Cc1c(CNCC(C)(C)O)n(C)c2ccc(NC(=O)c3ccc(OC[C@@H]4CCCO4)cc3)cc12 [Example 36, N-(2-{[(2-hydroxy-2-methylpropyl)amino]methyl}-1,3-dimethyl-1H-indol-5-yl)-4-[(2S)-tetrahydrofuran-2-ylmethoxy]benzamide] |
| 165 to 166 | Cc1c(CNCC(C)(C)C)n(C)c2ccc(NC(=O)c3ccc(OC[C@@H]4CCCO4)cc3)cc12 [Example 37, N-(2-{[(2,2-dimethylpropyl)amino]methyl}-1,3-dimethyl-1H-indol-5-yl)-4-[(2S)-tetrahydrofuran-2-ylmethoxy]benzamide] |
| 172 to 173 | Cc1c(CN[C@H]2CC[C@](C)(O)CC2)n(C)c2ccc(NC(=O)c3ccc(OC[C@@H]4CCCO4)cc3)cc12 [Example 38, N-(2-{[(trans-4-hydroxy-4-methylcyclohexyl)amino]methyl}-1,3-dimethyl-1H-indol-5-yl)-4-[(2S)-tetrahydrofuran-2-ylmethoxy]benzamide] |
| 142 to 143 | Cc1c(CNCC(C)C)n(C)c2ccc(NC(=O)c3ccc(OCC4CC4)cc3)cc12 [Example 39, 4-(cyclopropylmethoxy)-N-(2-{[(2-methylpropyl)amino]methyl}-1,3-dimethyl-1H-indol-5-yl)benzamide] |
| 176 to 177 | Cc1c(CNCC2CCOCC2)n(C)c2ccc(NC(=O)c3ccc(OCC4CC4)cc3)cc12 [Example 40, 4-(cyclopropylmethoxy)-N-(1,3-dimethyl-2-{[(tetrahydro-2H-pyran-4-ylmethyl)amino]methyl}-1H-indol-5-yl)benzamide] |
| 169 to 170 | Cc1c(CNCC(C)(C)C)n(C)c2ccc(NC(=O)c3ccc(OCC4CC4)cc3)cc12 [Example 41, 4-(cyclopropylmethoxy)-N-(2-{[(2,2-dimethylpropyl)amino]methyl}-1,3-dimethyl-1H-indol-5-yl)benzamide] |
